Consider 26 molecules from US6949544B2, “Inhibitors of c-Jun N-terminal kinases (JNK) and other protein kinases” (Vertex Pharmaceuticals Incorporated, priority 2001, dated 2005).

What all share (type): biochemical
The target in one experiment is T1, activated JNK3 (Homo sapiens, UniProt P53779).
T1 construct: One such construct encodes amino acid residues Ser40-Glu402 of JNK3α1 and is preceded by Met and Gly residues; Met-Gly (initiator methionine and added glycine) (N); made in house; host or cells: E. coli BL21 (DE3)
T1 sequence (P53779 40-402): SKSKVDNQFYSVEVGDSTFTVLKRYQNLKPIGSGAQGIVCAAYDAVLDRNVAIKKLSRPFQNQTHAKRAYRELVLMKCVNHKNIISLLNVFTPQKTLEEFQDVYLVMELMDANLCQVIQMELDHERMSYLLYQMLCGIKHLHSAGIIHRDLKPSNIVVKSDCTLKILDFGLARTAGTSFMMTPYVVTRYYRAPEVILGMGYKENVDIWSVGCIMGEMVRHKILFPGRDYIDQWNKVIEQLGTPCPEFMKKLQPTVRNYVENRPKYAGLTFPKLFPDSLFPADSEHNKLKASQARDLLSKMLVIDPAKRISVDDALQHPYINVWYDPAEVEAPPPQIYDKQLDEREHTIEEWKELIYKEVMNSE
Nature of the experiment: JNK inhibition assay (spectrophotometric coupled-enzyme assay). To be noted: for Ki: 10 nM activated JNK3, 10 μM ATP, read-out: Activity in the JNK3 Inhibition Assay (Ki rating A-C). The source says: A BLAST search of the EST database using the published JNK3α1 cDNA as a query identified an EST clone (#632588) that contained the entire coding sequence for human JNK3α1. Polymerase chain reactions (PCR) using pfu polymerase (Strategene) were used to introduce restriction sites into the cDNA for cloning into the pET-15B expression vector at the NcoI and BamHI sites. The protein was expressed in E. coli. […] This truncation corresponds to Ser 2 of JNK1 and JNK2 proteins, and is preceded by a methionine (initiation) and a glycine residue. The glycine residue was added in order to introduce an NcoI site for cloning into the expression vector. In addition, systematic C-terminal truncations were performed by PCR to identify a construct that give rise to diffraction-quality crystals.
5 mg of JNK3 was diluted to 0.5 mg/ml in 50 mM HEPES buffer, pH 7.5, containing 100 mM NaCl, 5 mM DTT, 20 mM MgCl2 and 1 mM ATP. GST-MKK7(DD) was added at a molar ratio of 1:2.5 GST-MKK7:JNK3. After incubation for 30 minutes at 25° C., the reaction mixture was concentrated 5-fold by ultrafiltration in a Centriprep-30 (Amicon, Beverly, Mass.), diluted to 10 ml and an additional 1 mM ATP added. This procedure was repeated three times to remove ADP and replenish ATP. The final addition of ATP was 5 mM and the mixture incubated overnight at 4° C.
The activated JNK3/GST-MKK7(DD) reaction mixture was exchanged into 50 mM HEPES buffer, pH 7.5, containing 5 mM DTT and 5% glycerol (w/v) by dialysis or ultrafiltration. The reaction mixture was adjusted to 1.1 M potassium phosphate, pH 7.5, and purified by hydrophobic interaction chromatography (at 25° C.) using a Rainin Hydropore column. […] Activated JNK3 (i.e. doubly phosphorylated JNK3) was stored at −70° C. at 0.25-1 mg/ml.
Compounds were assayed for the inhibition of JNK3 by a spectrophotometric coupled-enzyme assay. In this assay, a fixed concentration of activated JNK3 (10 nM) was incubated with various concentrations of a potential inhibitor dissolved in DMSO for 10 minutes at 30° C. in a buffer containing 0.1 M HEPES buffer, pH 7.5, containing 10 mM MgCl2, 2.5 mM phosphoenolpyruvate, 200 μM NADH, 150 μg/mL pyruvate kinase, 50 μg/mL lactate dehydrogenase, and 200 μM EGF receptor peptide. […] The reaction was initiated by the addition of 10 μM ATP and the assay plate is inserted into the spectrophotometer's assay plate compartment that was maintained at 30° C. The decrease of absorbance at 340 nm was monitored as a function of time. The rate data as a function of inhibitor concentration was fitted to competitive inhibition kinetic model to determine the Ki.

The target of experiment [1] is Glycogen Synthase Kinase 3 (GSK-3) (Homo sapiens, UniProt P49841). Nature of the experiment: GSK-3 inhibition assay (standard coupled enzyme assay). The following applies: 60 nM GSK-3, 10 μM ATP; read-out: GSK-3 Inhibitory Activity (Ki rating A-C). The procedure:
Compounds were screened in the following manner for their ability to inhibit Glycogen Synthase Kinase 3 (GSK-3) using a standard coupled enzyme assay (Fox et al (1998) Protein Sci 7, 2249). To an assay stock buffer solution containing 0.1M HEPES 7.5, 10 mM MgCl2, 25 mM NaCl, 2.5 mM phosphoenolpyruvate, 300 μM NADH, 1 mM DTT, 30 μg/mL pyruvate kinase, 10 μg/mL lactate dehydrogenase, 300 μM peptide (HSSPHQp-SEDEEE, American Peptide, Sunnyvale, Calif.), and 60 nM GSK-3, was added a 30 μM solution of the compound in DMSO and the resulting mixture incubated at 30° C. for 5 min. The reaction was initiated by the addition of 10 μM ATP. The rates of reaction were obtained by monitoring absorbance at 340 nm over a 5 minute read time at 30° C. using a Molecular Devices plate reader (Sunnyvale, Calif.). The IC50 was determined from the rate data as a function of inhibitor concentration.

The target in a further experiment is CDK-2/Cyclin A (Homo sapiens, UniProt P24941). Nature of the experiment: CDK2 inhibition assay (standard coupled enzyme assay). The following applies: 25 nM CDK-2/Cyclin A; read-out: CDK2 Inhibitory Activity (Ki rating A-C). The procedure: Compounds were screened in the following manner for their ability to inhibit CDK2 using a standard coupled enzyme assay (Fox et al (1998) Protein Sci 7, 2249).
To an assay stock buffer solution containing 0.1M HEPES 7.5, 10 mM MgCl2, 1 mM DTT, 25 mM NaCl, 2.5 mM phosphoenolpyruvate, […], […], […], […], and 100 μM peptide ([…], American Peptide, Sunnyvale, Calif.) was added a DMSO solution of a compound of the present invention to a final concentration of 30 μM. The resulting mixture was incubated at 30° C. for 10 minutes.
The reaction was initiated by the addition of 10 μL of CDK-2/Cyclin A stock solution to give a final concentration of 25 nM in the assay. The rates of reaction were obtained by monitoring absorbance at 340 nm over a 5-minute read time at 30° C. using a BioRad Ultramark plate reader (Hercules, Calif.). The Ki values were determined from the rate data as a function of inhibitor concentration.

The target in experiment [2] is T2, Lck kinase purified from bovine thymus (Bos taurus, UniProt Q3ZCM0).
T2 construct: Lck kinase purified from bovine thymus; purchased Upstate Biotechnology 14-106; host or cells: bovine thymus (tissue-purified)
T2 sequence (Q3ZCM0 1-509): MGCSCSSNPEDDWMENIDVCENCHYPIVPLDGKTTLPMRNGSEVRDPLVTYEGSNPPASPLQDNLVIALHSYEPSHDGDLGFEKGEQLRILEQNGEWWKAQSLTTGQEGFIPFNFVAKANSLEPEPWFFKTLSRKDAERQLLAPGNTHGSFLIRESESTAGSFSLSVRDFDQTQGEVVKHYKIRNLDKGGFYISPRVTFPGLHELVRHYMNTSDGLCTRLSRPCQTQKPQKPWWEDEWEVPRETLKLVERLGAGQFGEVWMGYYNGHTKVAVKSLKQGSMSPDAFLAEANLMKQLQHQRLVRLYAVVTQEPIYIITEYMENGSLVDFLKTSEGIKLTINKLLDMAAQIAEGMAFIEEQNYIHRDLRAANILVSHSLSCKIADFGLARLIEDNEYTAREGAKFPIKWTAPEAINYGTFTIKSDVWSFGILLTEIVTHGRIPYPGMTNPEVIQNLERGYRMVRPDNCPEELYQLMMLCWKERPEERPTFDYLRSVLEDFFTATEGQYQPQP
Nature of the experiment: Lck inhibition assay (33P incorporation into poly Glu-Tyr). The following applies: for Ki: 10 μM ATP, read-out: Activity in the Lck Inhibition Assay (Ki rating A-C). A digest of the protocol: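 Filter-binding radiometric assay of 33P transfer from ATP to poly Glu-Tyr (4:1, 5 mg/ml) by bovine thymus Lck in 0.05 M HEPES pH 7.6, 10 mM MgCl2, 2 mM DTT, 0.25 mg/ml BSA, 10 μM ATP. After 10 min at 30° C, reaction started with 33P-ATP, run 20 min, quenched with TCA; filter-bound radioactivity counted by scintillation.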

Chain of Glycogen Synthase Kinase 3 (GSK-3) (P49841 whole entry): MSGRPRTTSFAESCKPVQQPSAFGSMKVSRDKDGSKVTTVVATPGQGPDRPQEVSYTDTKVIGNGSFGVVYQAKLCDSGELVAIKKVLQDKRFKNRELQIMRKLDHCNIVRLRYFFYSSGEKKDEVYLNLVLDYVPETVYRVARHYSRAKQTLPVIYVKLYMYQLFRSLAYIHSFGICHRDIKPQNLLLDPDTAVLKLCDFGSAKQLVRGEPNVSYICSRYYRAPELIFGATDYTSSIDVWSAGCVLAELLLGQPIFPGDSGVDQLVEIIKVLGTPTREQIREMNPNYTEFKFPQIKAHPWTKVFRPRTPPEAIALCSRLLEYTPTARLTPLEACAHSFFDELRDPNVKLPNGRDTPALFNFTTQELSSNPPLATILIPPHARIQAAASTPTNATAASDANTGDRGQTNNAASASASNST

With `COc1cc(-c2ccnc(Nc3cccc(OCc4ccccc4)c3)n2)cc(OC)c1OC` [Compound I-38], the Ki is less than 0.1 µM on activated JNK3, less than 0.1 µM in experiment [1] and more than 5 µM at CDK-2/Cyclin A.

For `COc1cc(-c2ccnc(Nc3cccc(Cl)c3)n2)cc(OC)c1OCCN1CCOCC1` [Compound I-39, (3-Chlorophenyl)-(4[3,5-dimethoxy-4-(2-morpholin-4-yl-ethoxy)phenyl]pyrimidin-2-yl)-amine], the results for the Ki (on activated JNK3; in experiment [1]; at CDK-2/Cyclin A) were less than 0.1 µM, 0.1 to 1 µM and more than 5 µM, respectively.

`COc1c(Cl)cc(-c2ccnc(Nc3cccc(Cl)c3)n2)cc1Cl` [Compound I-41]: the values for the Ki (at activated JNK3; in experiment [1]; at CDK-2/Cyclin A) were 0.1 to 1 µM, 0.1 to 1 µM and more than 5 µM, respectively.

On to `COc1c(C)cc(-c2ccnc(Nc3cccc(Cl)c3)n2)cc1C` [Compound I-42], for which the Ki is less than 0.1 µM at activated JNK3, more than 1 µM in experiment [1] and more than 5 µM at CDK-2/Cyclin A.

As for `COc1c(Br)cc(-c2ccnc(Nc3cccc(Cl)c3)n2)cc1Br` [Compound I-43], the Ki is 0.1 to 1 µM at activated JNK3, 0.1 to 1 µM in experiment [1] and more than 5 µM on CDK-2/Cyclin A.

As for `COc1cccc(Nc2nccc(-c3cc(OC)c(OCCN4CCOCC4)c(OC)c3)n2)c1` [Compound I-49], the values for the Ki (at activated JNK3; in experiment [1]; on CDK-2/Cyclin A) were less than 0.1 µM, 0.1 to 1 µM and more than 5 µM, respectively.

Turning to `COc1cccc(Nc2nccc(-c3cc(Cl)c(OC)c(Cl)c3)n2)c1` [Compound I-51], the Ki is less than 0.1 µM at activated JNK3, 0.1 to 1 µM in experiment [1] and more than 5 µM on CDK-2/Cyclin A.

Consider `COc1cc(-c2ccnc(Nc3nc4ccccc4[nH]3)n2)cc(OC)c1OC` [Compound I-65], for which the “Activity in the JNK3 Inhibition Assay (percent inhibition rating D-F)” value on activated JNK3 (at a 2 μM inhibitor concentration) is on record as “D (percent inhibition less than or equal to 33%)”. Besides, the Ki in experiment [1] was less than 0.1 µM; on CDK-2/Cyclin A, more than 5 µM.

Consider `COc1cc(-c2ccnc(Nc3ccc(S(N)(=O)=O)cc3)n2)cc(OC)c1OC` [Compound I-66], for which the Ki is less than 0.1 µM on activated JNK3, less than 0.1 µM in experiment [1] and less than 2 µM at CDK-2/Cyclin A. Besides, in experiment [2] (at a 5 μM inhibitor concentration), the “Activity in the Lck Inhibition Assay (percent inhibition rating D-F)” value was “E (percent inhibition of between 24% and 66%)”.

For `COc1c(-c2ccnc(Nc3cccc(OCc4ccccc4)c3)n2)ccc2c1OCCO2` [II-18], the Ki in experiment [2] and in experiment [1] was more than 1 µM throughout.

As for `COc1ccc(-c2ccnc(Nc3cccc(Oc4cccc([N+](=O)[O-])c4)c3)n2)c(OC)c1OC` [II-25], the Ki in experiment [2] and in experiment [1] was less than 0.1 µM each time.

In the case of `COc1ccc(-c2ccnc(Nc3cccc(Oc4cccc(N)c4)c3)n2)c(OC)c1OC` [II-26], the Ki in experiment [2] and in experiment [1] was less than 0.1 µM throughout.

On to `COc1ccc(-c2ccnc(Nc3ncnc(Nc4ccccc4)n3)n2)c(OC)c1OC` [II-32], for which the Ki at activated JNK3 was less than 0.1 µM; in experiment [2], more than 1 µM; in experiment [1] it was 0.1 to 1 µM.

With `COc1cccc(Nc2ncnc(Nc3nccc(-c4ccc(OC)c(OC)c4OC)n3)n2)c1` [II-33], the Ki (at activated JNK3; in experiment [2]; in experiment [1]) was more than 1 µM throughout.

For the molecule `COc1ccc(-c2ccc(C)c(Nc3nccc(-c4ccc(OC)c(OC)c4OC)n3)c2)cc1` [II-44], the Ki in experiment [2] is 0.1 to 1 µM; in experiment [1], more than 1 µM; at CDK-2/Cyclin A, more than 5 µM.

As to `COc1ccc(-c2ccnc(Nc3cc(-c4cccc(F)c4)ccc3C)n2)c(OC)c1OC` [II-45], the Ki is 0.1 to 1 µM in experiment [2], more than 1 µM in experiment [1] and more than 5 µM at CDK-2/Cyclin A.

With `COc1ccc(-c2ccnc(Nc3cc(-c4cccc(N)c4)ccc3C)n2)c(OC)c1OC` [II-46], the Ki in experiment [2] is 0.1 to 1 µM; in experiment [1], more than 1 µM; on CDK-2/Cyclin A it was more than 5 µM.

Take `COc1ccc(-c2ccnc(Nc3cc(-c4cccc(O)c4)ccc3C)n2)c(OC)c1OC` [II-47]: the values for the Ki (in experiment [2]; in experiment [1]; at CDK-2/Cyclin A) were 0.1 to 1 µM, 0.1 to 1 µM and more than 5 µM, respectively.

As for `COc1ccc(-c2ccccc2)cc1Nc1nccc(-c2ccc(OC)c(OC)c2OC)n1` [II-48], the Ki in experiment [2] was 0.1 to 1 µM; in experiment [1], 0.1 to 1 µM; at CDK-2/Cyclin A, more than 5 µM.

Take `COc1ccc(Nc2nccc(-c3ccc(OC)c(OC)c3OC)n2)cc1O` [II-70]: the Ki in experiment [2] is 0.1 to 1 µM; in experiment [1], 0.1 to 1 µM; at CDK-2/Cyclin A, more than 5 µM.

With `COc1ccc(Nc2nccc(-c3ccc(OC)c(OC)c3OC)n2)cc1[N+](=O)[O-]` [II-71], the Ki in experiment [2] is 0.1 to 1 µM; in experiment [1], more than 1 µM; on CDK-2/Cyclin A, more than 5 µM.

For the molecule `COc1ccc(Nc2nccc(-c3ccc(OC)c(OC)c3OC)n2)cc1N` [II-72], the Ki in experiment [2] was more than 1 µM; in experiment [1], more than 1 µM; at CDK-2/Cyclin A, more than 5 µM.

As for `COc1ccc(Oc2cc(Nc3nccc(-c4ccc(OC)c(OC)c4OC)n3)ccc2OC)cc1` [II-73], the results for the Ki (in experiment [2]; in experiment [1]; on CDK-2/Cyclin A) were less than 0.1 µM, less than 0.1 µM and more than 5 µM, respectively.

Turning to `COc1ccc(Nc2nccc(-c3ccc(OC)c(OC)c3OC)n2)cc1Oc1cccc(Cl)c1` [II-74], the Ki was less than 0.1 µM in experiment [2], less than 0.1 µM in experiment [1] and more than 5 µM at CDK-2/Cyclin A.

`COc1cccc(Oc2cc(Nc3nccc(-c4ccc(OC)c(OC)c4OC)n3)ccc2OC)c1` [II-75]: the Ki in experiment [2] was less than 0.1 µM; in experiment [1] it was less than 0.1 µM; at CDK-2/Cyclin A it was more than 5 µM.

For `CCOc1ccc(Oc2cc(Nc3nccc(-c4ccc(OC)c(OC)c4OC)n3)ccc2OC)cc1` [II-76], the figures for the Ki (in experiment [2]; in experiment [1]; at CDK-2/Cyclin A) were less than 0.1 µM, 0.1 to 1 µM and more than 5 µM, respectively.

By Ki is commonly meant a measure of affinity in units of concentration, obtained from inhibition or displacement.
